Laboratory results reported in patent publication US12440479B2, “Prevention or treatment of chronic organ injury” (GEORG-AUGUST-UNIVERSITAET GOETTINGEN, STIFTUNG …, priority 2018, dated 2025).

Columns and labels:
ARNT/HIF1α, ARNT/AHR = assay: Co-immunoprecipitation using antibodies to ARNT in cultured TECs; assay type: cell-based, mouse; settings: cultured TECs in response to FK506 (200 pM), IP: Arnt
Description: CoIP was performed with Protein G Immunoprecipitation Kit (Roche, Basel, Switzerland). Protein A/G PLUS Agarose beads (Santa Cruz Biotechnology, Santa Cruz, USA) were used for the lysate pre-cleaning and pull-down. For each CoIP, 2×10^7 MCT cells have been used following the manufacturer's instructions. Yy1 (ab12132, Abcam Biochemicals, Cambridge, UK), Fkbp12 (ab2918, Abcam Biochemicals, Cambridge, UK), Arnt (3718, Cell Signaling, Danvers, USA), GFP (MA5-15256, Thermo Fisher Scientific, Waltham, USA) and myc-tag antibodies (2276, Cell Signaling, Danvers, USA) were used for immunoprecipitation, detection of co-immunoprecipitated Fkbp12 (ab12132, Abcam Biochemicals, Cambridge, UK), Hif1α ([MUT], Sigma, St. Louis, USA), Ahr (MA1-514, Thermo Fisher Scientific, Waltham, USA), GFP (MA5-15256, Thermo Fisher Scientific, Waltham, USA) and myc-tag (2276, Cell Signaling, Danvers, USA) was performed by immunoblotting.

TEC cultures = assay: RT2 Profiler PCR arrays (transcription factor, hypoxia, drug metabolism) in TECs; assay type: cell-based
Description: To compare qPCR-validated cDNA samples after FK506 treatment and DMSO control, gene expression profiling was performed using commercially available plates (PAHS-075Z/PAMM-002Z/PAMM032Z, SABiosciences, Qiagen, Hilden, Germany). HK-2 cells were plated in 6 well culture plates as previously described and stimulated with 150 ng/mL FK506, MCT cells with 200 pM FK506. After 6 hours, cells were dissolved and RNA was isolated, digested and reverse transcripted. The 25 ng cDNA equivalent of total RNA was added to the reaction mixture containing diluted 2× RT^2 SYBR Green ROX qPCR Mastermix (Qiagen, Hilden, Germany) in a final volume of 25 μL for each well of the RT2 Profiler PCR. PCR reactions were performed under recommended thermal cycling conditions (10 min at 95° C., 15 s at 95° C., 1 min at 60° C. for 40 cycles). To verify PCR specificity, dissociation curve analysis was generated. Relative levels of mRNA expression were normalized in all the samples with expression levels of included housekeeping genes, and data analysis was done using an web-based analysis software provided by SABiosciences. Transcription factor binding sites within the ALK3 proximal promoter was performed 5000 basepairs relative to transcriptional start site using […] database (98).

[1] = test system: proximal ALK3 promoter (CACGTG E-box motif); assay: ALK3 ChIP-PCR after Arnt pull-down; assay type: cell-based, mouse; settings: TECs upon exposure to FK506
Description: DNA and protein interaction was performed with the OneDay ChIP Kit (Diagenode, Seraing, Belgium) according to the manufacturer's instructions. 2×10^7 MCT cells have been used for each ChIP reaction. Cell lysates were sonicated using an ultrasonic processor S-4000 (Misonix, Farmingdale, USA). Immunoprecipitation was performed with a ChIP grade antibody against Yy1 (ab12132, Abcam Biochemicals, Cambridge, UK) and Arnt (3718, Cell Signaling, Danvers, USA). Enriched DNA was analyzed by qRT-PCR with EpiTect ChIP qPCR primers for genomic Arnt (Qiagen, Hilden, Germany), oligonucleotide sequences for genomic Alk3 are listed in Table 10.

[2] = test system: chronically injured hearts; assay: Angiotensin II (AT II)-induced cardiac hypertrophy and fibrosis; assay type: in vivo, mice; settings: heart, 10 mg/kg subcutaneously per day starting one day prior
Description: Eight to twelve weeks old C57BL/6 mice were anesthetized with isoflurane inhalation (2-3%), analgesia was performed by subcutaneous injection of 0.1 mg/kg body weight Buprenorphine per day. Osmotic minipumps (Alzet, Cupertino, USA) were loaded with AT II to continuously deliver 1.44 μg/kg body weight per day and implanted subcutaneously (123). Mice were sacrificed 14 days after implantation for further analyses. Mice were injected subcutaneously with 10 mg/kg body weight per day GPI-1046 (Santa Cruz Biotechnology, Dallas, USA) in DMSO once daily starting one day prior of surgery, control mice received equivalent volume of vehicle DMSO. […] For morphometric analysis of interstitial fibrosis, fibrotic areas were assessed by using cellSens (Olympus, Tokyo, Japan) software. Ten visual fields were selected randomly for each MTS stained section at 200× magnification and the relative interstitial fibrotic area was evaluated by using a 10 mm2 graticule. Tubular damage was analysed after PAS stain and graded according to a semi-quantitative score of 0 to 3 (0: normal, 1: mild, 2: moderate, 3: severe) at 400× magnification in a total number of 100 tubules per section (158). […] Cardiomyocyte diameters were determined from 100 random fibers in PAS-stained heart sections using cellSens (Olympus, Tokyo, Japan) software.

murine TECs = assay: Murine TEC cultures (MCT): mRNA expression (qRT-PCR), pSmad1/5/8 immunostaining, proliferation; assay type: cell-based, mouse; settings: cultured TECs, GPI-1046 10 μM

SMILES	ARNT/HIF1α or ARNT/AHR interaction (ARNT/HIF1α, ARNT/AHR)	induction of transcriptional factors AR, ARNT, CEPB, CREB1, GATA3 and MAX (array) (TEC cultures; TEC cultures upon FK506 exposure)	pathways involved in hypoxic signaling or drug metabolism (mRNA expression arrays) (TEC cultures; TECs exposed to FK506)	ARNT binding to CACGTG motif within the proximal ALK3 promoter [1]	ALK3-dependent canonical BMP signaling responses [2]	protection from fibrogenesis [2]	canonical BMP signaling responses (murine TECs)	transcriptional induction of ARNT and ALK3 mRNA expression levels (murine TECs)
C=CC[C@@H]1/C=C(\C)C[C@H](C)C[C@H](OC)[C@H]2O[C@@](O)(C(=O)C(=O)N3CCCC[C@H]3C(=O)O[C@H](/C(C)=C/[C@@H]3CC[C@@H](O)[C@H](OC)C3)[C@H](C)[C@@H](O)CC1=O)[C@H](C)C[C@@H]2OC [FK506, tacrolimus]	did not provide evidence	at least 2 fold	did not markedly induce	significantly increased	–	–	–	–
CCC(C)(C)C(=O)C(=O)N1CCC[C@H]1C(=O)OCCCc1cccnc1 [GPI-1046, 3-(3-pyridyl)-1-propyl-(2S)-1-(3,3-dimethyl-1,2-dioxopentyl)-2-pyrrolidinedine carboxylate]	–	–	–	–	equally effective	equally effective	activation of canonical BMP signaling responses	equally effective
